Laboratory results published in US12577232B2, “N-heterocycle substituted tryptamine derivatives and methods of using” (ENVERIC B[…] INC., priority 2024, dated 2026).

How the values were obtained:
5-HT1A receptor = target: T1, 5-HT1A receptor (Homo sapiens, UniProt P08908); test: 5-HT1A receptor radioligand competition assay (SPA, [3H]8-hydroxy-DPAT); assay type: binding; settings: 0.5 nM hot 8-hydroxy-DPAT; membranes containing 5-HT1A
T1 construct: purchased Perkin Elmer 6110501400UA
T1 sequence (P08908 1-422): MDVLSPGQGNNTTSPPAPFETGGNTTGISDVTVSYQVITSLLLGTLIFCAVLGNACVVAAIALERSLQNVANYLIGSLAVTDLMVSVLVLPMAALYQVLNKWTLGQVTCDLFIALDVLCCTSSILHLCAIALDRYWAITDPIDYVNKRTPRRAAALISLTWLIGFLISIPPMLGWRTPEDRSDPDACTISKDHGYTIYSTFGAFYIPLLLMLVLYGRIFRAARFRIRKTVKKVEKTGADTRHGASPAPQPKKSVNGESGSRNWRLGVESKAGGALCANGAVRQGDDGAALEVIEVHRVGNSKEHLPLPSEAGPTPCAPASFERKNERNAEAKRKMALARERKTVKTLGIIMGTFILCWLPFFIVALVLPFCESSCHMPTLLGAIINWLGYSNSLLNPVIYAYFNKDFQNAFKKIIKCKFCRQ
Procedure: 5-HT1A receptor. […] After incubation, the samples were read on a MicroBeta 2 Microplate Counter (perkinelmer.com). Non-specific binding was carried out in the presence of 100 μM of metergoline (M3668-500MG, Sigma-Aldrich). Equilibrium binding constant for 8-hydroxy-DPAT (KD) was determined from a saturation binding curve using one-site saturation binding analysis from GraphPad PRISM software (Version 9.2.0). Test compound was dissolved to 100 mM in dimethylsulfoxide (DMSO), and dilutions were carried out in assay buffer. […] Ki values were calculated from the competition displacement data using the competitive binding analysis from GraphPad PRISM software. […] Conversely, blank preparations lacking any drug (simply termed ‘DMSO’ samples) were used as negative controls, in addition to those containing tryptophan which is not known to bind the 5-HT1A receptor.

[1] = tested on: stressed C57BL/6-Elite mice; test: Mouse sucrose preference (SP) assay to assess antidepressant potential; assay type: in vivo; settings: i.p., psilocin 3 mg/kg, compound (XV) 10 mg/kg; one day after administration
Procedure: Reduced intake of pleasurable substances, e.g., of sucrose water, is a validated behavioral measure of anhedonic/depressive-like state in rodents (Moreau et al., 1992, Eur. Neurpsychopharmocol. 2:43-49; Liu et al., 2018, Nature Protocols 13:1686-1698). […] In the SP assay, cohorts of mice are pre-stressed, leading to a depressed state. The ability of drugs to rescue this state are evaluated.
All animal protocols were approved by the University of Calgary Animal Care and Use Committee. C57BL/6-Elite mixed sex mice were obtained from Charles River Laboratories (Toronto, Canada) at 8-9 weeks old. Mice were maintained on a 12:12 h light/dark schedule (lights on at 07:00 hours) with ad libitum access to food and water and group-housed until 2 days prior to the start of the mild chronic stress paradigm, then mice were single-housed. […]
Mice were introduced to 1% sucrose solution in their drinking water for 24 hrs for 2 days prior to initial sucrose preference testing to reduce impact of novelty. […] The consumption in water, sucrose solution, and total intake of liquids was measured by weighing each bottle before and after the 24-hr experiment. The preference for sucrose was calculated as a percentage of the consumed sucrose solution from the total intake of both water and sucrose solutions. […]

[2] = tested on: stressed C57BL/6-Elite mice; test: Mouse marble burying (MB) assay to assess anxiolytic potential; assay type: in vivo; settings: i.p., psilocin 3 mg/kg, compound (XV) 10 mg/kg; vs Vehicle+Stress
Procedure: Marble burying behavior is used to measure the level of anxiety in a rodent when it encounters unfamiliar objects (Deacon, 2006, Nature Protocols 1:122-124). This assay is routinely applied to the study of chronically stressed mice, where drug candidates are evaluated for an ability to diminish stress-induced, anxiety-like behaviours (e.g., Wang et al., ACS Chem. Neurosci. 14:977-987). Positive results in this assay may be interpreted as an indication of therapeutic (anxiolytic) potential in the treatment of various psychiatric disorders. Herein, we applied the marble burying model to investigate whether selected drugs could alleviate anxiety behaviour in stressed mice.
All animal protocols were approved by the University of Calgary Animal Care and Use Committee. C57BL/6-Elite mixed sex mice were obtained from Charles River Laboratories (Toronto, Canada) at 8-9 weeks old. […]
On the testing days, 10 glass marbles (approx. 15 mm in diameter) were evenly spaced on 5 cm of wood-chip bedding (lightly tamped down to make a flat and even surface). […] The number of marbles buried to ⅔rds their depth was measured. Fully buried marbles were counted as 1 and partially (at least ⅔rds) buried marbles were counted as 0.5. […]

5-HT2A receptor = target: T2, 5-HT2A receptor (Homo sapiens, UniProt P28223); test: Functional cell-based 5-HT2A assay, agonism mode (CHO-K1/5-HT2A, Fluo-8 calcium flux); settings: CHO-K1/5-HT2A cells
T2 construct: purchased PerkinElmer ES-313-M400UA
T2 sequence (P28223 whole entry): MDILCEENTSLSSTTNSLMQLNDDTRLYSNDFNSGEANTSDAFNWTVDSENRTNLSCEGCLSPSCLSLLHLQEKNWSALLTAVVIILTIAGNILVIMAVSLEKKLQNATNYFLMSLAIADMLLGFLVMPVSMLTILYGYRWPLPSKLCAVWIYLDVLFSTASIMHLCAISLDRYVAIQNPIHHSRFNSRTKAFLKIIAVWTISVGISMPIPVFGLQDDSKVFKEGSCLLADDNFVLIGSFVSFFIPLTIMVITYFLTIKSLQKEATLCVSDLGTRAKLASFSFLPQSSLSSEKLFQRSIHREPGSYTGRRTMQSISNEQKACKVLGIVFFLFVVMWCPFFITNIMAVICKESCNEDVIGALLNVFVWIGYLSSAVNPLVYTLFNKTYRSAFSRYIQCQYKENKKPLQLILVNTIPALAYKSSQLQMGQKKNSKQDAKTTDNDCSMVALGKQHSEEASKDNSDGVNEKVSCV
Procedure: Herein, functional, cell-based assays were conducted to determine (1) agonist potency and efficacy of drugs at the 5-HT2A receptor (agonist mode), and (2) antagonist potency at the 5-HT2A receptor (antagonist mode).
All cells were grown and maintained as a monolayer in Ham's F12 nutrient mix supplemented with 10% fetal bovine serum (FBS) and 400 μg/mL geneticin (G418) all from ThermoFisher Scientific and used according to the manufacturer's instructions. Cells were cultured and incubated at 37° C. in a humidified oxygen atmosphere with 5% CO2. To evaluate the activation of 5-HT2A signal transduction, cells were first seeded in tissue culture-treated, black-walled, clear-bottom 96-well plates (Thermo Scientific) at a density of 40,000 cells/well in 100 pl Ham's F12 nutrient mix supplemented with 2% FBS. Cells were cultured for 24 h in a humidified incubator at 37° C. and 5% CO2. Cells were then loaded with Fluo-8 calcium indicator dye for 1 h at 37° C. and an additional 30 min at room temperature as per the manufacturer's protocol. […] Kinetic increases in intracellular calcium levels were measured immediately after addition of test compounds every 6.4 s for a total of 3 min using the FlexStation 3 multimode microplate reader and SoftMax Pro 7.1 analysis software (Molecular Devices, moleculardevices.com). […] EC50 values were calculated from the normalized data from GraphPad PRISM software.

CN(C)CCc1c[nH]c2cc(F)cc(N3CCOCC3)c12 [Compound (XV)]
Ki (5-HT1A receptor): 1.83 µM
sucrose preference behaviour in stressed mice vs no drug control [1]: significant preference for sucrose
anxiety-linked (marble burying) behavior in stressed mice [2]: alleviated
engagement at the 5-HT2A receptor, agonist mode (5-HT2A receptor): agonism

CN(C)CCc1c[nH]c2cc(N3CCCC3)cc(F)c12 [Compound (XVIII)]
Ki (5-HT1A receptor): 18.1 µM

CN(C)CCc1c[nH]c2cc(N3CCC3)ccc12 [Compound (XII)]
Ki (5-HT1A receptor): 20.8 µM
